From the supplement of paper PMC10307832 come the findings set out here.

Common to all, as to test: relative viability (nuclei count vs DMSO), 5 days (fraction); higher = more cells survive
Compound in assay [1]: CC1=CN2C(=O)C=C(N=C2C(=C1)C(C)NC3=CC=CC=C3)N4CCOCC4 [TGX 221] + N=C(N)NC(=N)NCCc1ccccc1 [Phenformin] (partner 250 µM)
The procedure, abridged:
(§1)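 The day after seeding in 1536-well plates, lung cancer cell lines were treated by pin tool with a single drug, or with a fixed anchor-drug dose together with five library-drug doses (not always all listed) in √10 steps. After 5 days, a combined fix-and-stain solution (final 0.05% Triton X-100, 1% formaldehyde, 1 ug/ml Hoechst) was added. Nuclei counted on 4× images gave relative viability as treated counts over vehicle counts, reported as the median of duplicate plates.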

Compound in assay [2]: CC1=CN2C(=O)C=C(N=C2C(=C1)C(C)NC3=CC=CC=C3)N4CCOCC4 [TGX 221] + Cc1nc(Nc2ncc(C(=O)Nc3c(C)cccc3Cl)s2)cc(N2CCN(CCO)CC2)n1 [Dasatinib] (partner 0.075 µM)
A digest of the protocol: as §1

Compound in assay [3]: CC1=CN2C(=O)C=C(N=C2C(=C1)C(C)NC3=CC=CC=C3)N4CCOCC4 [TGX 221] + NC(=O)Nc1cc(-c2cccc(F)c2)sc1C(=O)N[C@H]1CCCNC1 [AZD7762] (partner 0.2 µM)
The procedure, abridged: as §1

Compound in assay [4]: O=C(CCCCCCNC(=O)c1cnc(N(c2ccccc2)c2ccccc2)nc1)NO [Ricolinostat] + Nc1ncn([C@H]2C[C@H](O)[C@@H](CO)O2)c(=O)n1 [Decitabine] (partner 2 µM)
The procedure, abridged:
as §1

In the case of NCI-H23, the relative viability came out at 0.814 in assay [1] (first compound 0.08 µM); 0.699 in assay [1] (first compound 0.253 µM); 0.811 in assay [1] (first compound 0.8 µM); 0.836 in assay [1] (first compound 2.53 µM); 0.773 in assay [1] (first compound 8 µM); 0.784 in assay [2] (first compound 0.08 µM). Also, the relative viability was 0.745 in assay [2] (first compound 0.253 µM); 0.823 in assay [2] (first compound 0.8 µM); 0.742 in assay [2] (first compound 2.53 µM); 0.586 in assay [2] (first compound 8 µM); 0.277 in assay [3] (first compound 0.08 µM); 0.213 in assay [3] (first compound 0.253 µM). In addition, the relative viability was determined as 0.269 in assay [3] (first compound 0.8 µM); 0.217 in assay [3] (first compound 2.53 µM); 0.201 in assay [3] (first compound 8 µM); 0.325 in assay [4] (first compound 0.08 µM); 0.316 in assay [4] (first compound 0.253 µM); 0.319 in assay [4] (first compound 0.8 µM). Also, the relative viability in assay [4] (first compound 2.53 µM) amounted to 0.323.

For NCI-H322M, the relative viability in assay [1] (first compound 0.08 µM) was 0.761; in assay [1] (first compound 0.253 µM) it was 0.735; in assay [1] (first compound 0.8 µM) it was 0.715; in assay [1] (first compound 2.53 µM) it was 0.758; in assay [1] (first compound 8 µM) it was 0.682; in assay [2] (first compound 0.08 µM) it was 0.231. The relative viability stood at 0.242 in assay [2] (first compound 0.253 µM); 0.244 in assay [2] (first compound 0.8 µM); 0.247 in assay [2] (first compound 2.53 µM); 0.224 in assay [2] (first compound 8 µM); 0.578 in assay [3] (first compound 0.08 µM); 0.569 in assay [3] (first compound 0.253 µM). Further, the relative viability in assay [3] (first compound 0.8 µM) was 0.636; in assay [3] (first compound 2.53 µM), 0.571; in assay [3] (first compound 8 µM), 0.546; in assay [4] (first compound 0.08 µM), 0.616; in assay [4] (first compound 0.253 µM), 0.708; in assay [4] (first compound 0.8 µM), 0.721. Moreover, the relative viability in assay [4] (first compound 2.53 µM) amounted to 0.754.

With NCI-H358, the relative viability in assay [1] (first compound 0.08 µM) was found to be 0.355; in assay [1] (first compound 0.253 µM) it was 0.31; in assay [1] (first compound 0.8 µM), 0.296; in assay [1] (first compound 2.53 µM), 0.382; in assay [1] (first compound 8 µM), 0.324; in assay [2] (first compound 0.08 µM), 0.158. The relative viability in assay [2] (first compound 0.253 µM) stood at 0.169; in assay [2] (first compound 0.8 µM), 0.146; in assay [2] (first compound 2.53 µM), 0.165; in assay [2] (first compound 8 µM), 0.158; in assay [3] (first compound 0.08 µM), 0.497; in assay [3] (first compound 0.253 µM), 0.631. Besides, the relative viability in assay [3] (first compound 0.8 µM) is 0.462; in assay [3] (first compound 2.53 µM), 0.58; in assay [3] (first compound 8 µM), 0.515; in assay [4] (first compound 0.08 µM) it was 0.247; in assay [4] (first compound 0.253 µM), 0.212; in assay [4] (first compound 0.8 µM), 0.214. Also, the relative viability in assay [4] (first compound 2.53 µM) stood at 0.179.

Turning to NCI-H441, the relative viability amounted to 0.791 in assay [1] (first compound 0.08 µM); 0.911 in assay [1] (first compound 0.253 µM); 0.79 in assay [1] (first compound 0.8 µM); 0.785 in assay [1] (first compound 2.53 µM); 1.09 in assay [1] (first compound 8 µM); 0.534 in assay [2] (first compound 0.08 µM). In addition, the relative viability in assay [2] (first compound 0.253 µM) is 0.597; in assay [2] (first compound 0.8 µM) it was 0.59; in assay [2] (first compound 2.53 µM), 0.609; in assay [2] (first compound 8 µM), 0.661; in assay [3] (first compound 0.08 µM) it was 1.22; in assay [3] (first compound 0.253 µM) it was 1.12. For the same cell line, the relative viability in assay [3] (first compound 0.8 µM) came out at 0.925; in assay [3] (first compound 2.53 µM) it was 1.07; in assay [3] (first compound 8 µM), 1.24; in assay [4] (first compound 0.08 µM), 0.28; in assay [4] (first compound 0.253 µM), 0.227; in assay [4] (first compound 0.8 µM), 0.202. For the same cell line, the relative viability in assay [4] (first compound 2.53 µM) was 0.214.

As for NCI-H460, the relative viability in assay [1] (first compound 0.08 µM) was 0.508; in assay [1] (first compound 0.253 µM), 0.466; in assay [1] (first compound 0.8 µM), 0.53; in assay [1] (first compound 2.53 µM) it was 0.536; in assay [1] (first compound 8 µM), 0.467; in assay [2] (first compound 0.08 µM) it was 0.478. Moreover, the relative viability was 0.477 in assay [2] (first compound 0.253 µM); 0.526 in assay [2] (first compound 0.8 µM); 0.539 in assay [2] (first compound 2.53 µM); 0.432 in assay [2] (first compound 8 µM); 0.564 in assay [3] (first compound 0.08 µM); 0.632 in assay [3] (first compound 0.253 µM). Also, the relative viability came out at 0.559 in assay [3] (first compound 0.8 µM); 0.665 in assay [3] (first compound 2.53 µM); 0.655 in assay [3] (first compound 8 µM); 0.496 in assay [4] (first compound 0.08 µM); 0.429 in assay [4] (first compound 0.253 µM); 0.519 in assay [4] (first compound 0.8 µM). In addition, in assay [4] (first compound 2.53 µM), the relative viability is 0.427.

For NCI-H522, the relative viability in assay [1] (first compound 0.08 µM) is 0.699; in assay [1] (first compound 0.253 µM) it was 0.581; in assay [1] (first compound 0.8 µM), 0.597; in assay [1] (first compound 2.53 µM), 0.669; in assay [1] (first compound 8 µM), 0.657; in assay [2] (first compound 0.08 µM) it was 0.834. The relative viability in assay [2] (first compound 0.253 µM) was determined as 0.81; in assay [2] (first compound 0.8 µM), 0.851; in assay [2] (first compound 2.53 µM), 0.843; in assay [2] (first compound 8 µM), 0.826; in assay [3] (first compound 0.08 µM), 0.771; in assay [3] (first compound 0.253 µM) it was 0.81. Moreover, the relative viability in assay [3] (first compound 0.8 µM) was 0.888; in assay [3] (first compound 2.53 µM) it was 0.871; in assay [3] (first compound 8 µM) it was 0.904; in assay [4] (first compound 0.08 µM), 0.641; in assay [4] (first compound 0.253 µM) it was 0.702; in assay [4] (first compound 0.8 µM), 0.714. In addition, the relative viability in assay [4] (first compound 2.53 µM) came out at 0.642.

Regarding NCI-H596, the relative viability in assay [1] (first compound 0.08 µM) was found to be 0.726; in assay [1] (first compound 0.253 µM) it was 0.753; in assay [1] (first compound 0.8 µM) it was 0.852; in assay [1] (first compound 2.53 µM), 0.678; in assay [1] (first compound 8 µM) it was 0.874; in assay [2] (first compound 0.08 µM) it was 0.593. Moreover, the relative viability in assay [2] (first compound 0.253 µM) is 0.531; in assay [2] (first compound 0.8 µM), 0.585; in assay [2] (first compound 2.53 µM) it was 0.522; in assay [2] (first compound 8 µM) it was 0.563; in assay [3] (first compound 0.08 µM) it was 1.05; in assay [3] (first compound 0.253 µM), 0.904. The relative viability in assay [3] (first compound 0.8 µM) amounted to 1.11; in assay [3] (first compound 2.53 µM) it was 0.942; in assay [3] (first compound 8 µM), 1.03; in assay [4] (first compound 0.08 µM), 0.992; in assay [4] (first compound 0.253 µM), 0.981; in assay [4] (first compound 0.8 µM) it was 0.99. Also, the relative viability in assay [4] (first compound 2.53 µM) turned out to be 1.67.
